What is called IC50 is the midpoint of a concentration-inhibition curve.

These results are taken from patent US20240156742A1, “TARGETED MULTIFUNCTIONAL NANOSTRUCTURED LIPID CARRIERS” (TECHNION RESEARCH & DEVELOPMENT FOUNDATION LIMITED, priority 2021, published 2024).

Data set [1] can be described thus: Kinetic profile of in vitro drug release by dialysis. The data set is classed as physicochemical. Particulars: dialysis in PBS pH 7.4 with 0.1% Tween 80, 37° C., 72 hr; burst within first 10 hr. How it is done:
The kinetics of in vitro release of drugs from the loaded NPs and free drugs were studied by the dialysis method. One (1) ml of drug-loaded NPs or free drugs (both systems in DW) were placed in dialysis bags (molecular weight cutoff of 3.5 kDa, Sigma-Aldrich, Merck, Rehovot, Israel) and incubated in 30 ml volume of plasma simulating buffer comprising phosphate-buffered saline (PBS, 10 mM, pH 7.4) containing 0.1% tween 80 for 72 hr, at 37° C., with continuous gentle agitation. At defined time intervals (0, 2, 4, 6, 10, 23, 29, 36, 47, 58, 72 hr), the dialysate was collected and replaced by the same volume of fresh release buffer. To calculate the cumulative release of drugs, the dialysates from each time point were freeze-dried, dissolved in EtOH or DMSO for CTX or ENZ extraction, respectively, filtered through 0.45 μm membrane, and quantified using RP-HPLC, as described above. The results are presented as means of two experiments±SE.
The kinetics of in vitro release of CTX and ENZ from NPs were assessed by dialysis in a large volume of a plasma-simulating buffer for 72 hr at 37° C., with continuous mixing. […] At defined time intervals, the dialysate was replaced with a fresh buffer, and the drug was quantified using RP-HPLC. […]

Data set [2] concerns LNCaP target cells (PSMA-positive PC cell line). In words: XTT growth inhibition assay, LNCaP. The data set is classed as cell-based. Particulars: Homo sapiens, free drug in growth medium for 72 hr. The procedure: (§1) The selective growth inhibition of CTX-loaded NPs was studied in LNCaP target cells and PC-3 non-target cells, using an XTT-based colorimetric cell proliferation kit as previously described. The preparation of CTX-loaded NPs was performed as described and had undergone 24 hr dialysis before cell exposure, to simulate the conditions in the human body. The dialysis was conducted as described in the “Kinetic profile of in vitro drug release” in the materials and methods section, but with the use of 10% FBS to capture the released CTX. Prior to the experiment, 96-well plates were coated with poly-L-Lysine before cell plating. LNCaP and PC-3 cells were seeded in 96-well plates at 5×10^4 and 2.5×10^4 cells/ml, respectively, and incubated overnight to allow for cell attachment. Following exposure of cells to CTX-loaded NPs at increasing CTX concentrations of 0.001-100 nM for 24 hr, cells were incubated for additional 72 hr with fresh growth medium. Cellular growth inhibition was determined by adding the XTT reagent. Data were plotted using a nonlinear curve fitting of a sigmoidal model (Hill1) with OriginPro 9.0 to obtain a dose-response curve according to Equation (3): […]
In general terms: Formazan colour is commonly taken as a measure of viable cells.

For data set [3], the system named is PC-3 non-target cells (PSMA-negative PC cell line). In words: XTT growth inhibition assay, PC-3. The data set is classed as cell-based. The following applies: Homo sapiens; free drug in growth medium for 72 hr. How it is done: as §1
The subject of data set [4] is LNCaP cells. The following applies: exposure for 48 hr; cited from earlier work.

In the case of `CNC(=O)c1ccc(N2C(=S)N(c3ccc(C#N)c(C(F)(F)F)c3)C(=O)C2(C)C)cc1F` [unencapsulated ENZ, Enzalutamide], in data set [1], the “in vitro release profile” value is given as “burst release”.
Take `CO[C@H]1C(=O)[C@]2(C)[C@@H](OC)C[C@H]3OC[C@@]3(OC(C)=O)[C@H]2[C@H](OC(=O)c2ccccc2)[C@]2(O)C[C@H](OC(=O)[C@H](O)[C@@H](NC(=O)OC(C)(C)C)c3ccccc3)C(C)=C1C2(C)C` [free CTX, Cabazitaxel]: in data set [1], the “in vitro release profile” value is given as “burst release”. Besides, the IC50 in data set [2] is 0.25 ± 0.04 nM; in data set [3] it was 0.18 ± 0.04 nM; in data set [4], 2.6 to 3.1 nM.
